Measured values reported in patent US11434330B2, “Polyrotaxanes bearing mixed cyclodextrin species and uses thereof” (Purdue Research Foundation, priority 2015, dated 2022).

Tests used:
[1] = test system: Niemann-Pick C1-deficient (npc1−/−) fibroblasts; experiment: Cholesterol mobilization (filipin staining) in npc1−/− fibroblasts; type: cell-based; settings: 6 h after treatment, total β-CD concentration 25 μM
Procedure: PR carrying an increasing percentage of SBE-β-CD were administered to Niemann-Pick C1-deficient (npc1−/−) fibroblasts to examine their ability to mobilize cholesterol from sites of aberrant accumulation. Each PR family member, generated with a 0%, 30%, 50%, 60%, or 100% SBE-β-CD feed ratio, was administered at a total β-CD concentration of 25 μM and compared to administration of 25 μM SBE-β-CD or HP-β-CD monomers as controls. Comparisons were made at equivalent β-CD concentrations in these experiments, such that each PR construct carrying 10 copies of β-CD was administered at a 10-fold lower molar concentration than for the β-CD monomer controls, so that any apparent differences in cholesterol mobilization could be attributed to the PR agent (a type of β-CD prodrug) rather than the total drug concentration added to the cells.
HP-β-CD and SBE-β-CD monomers decreased the average filipin staining in npc1−/− fibroblasts to approximately 75% of the untreated control levels after 6 h. PR comprised of 100% HP-β-CD and 100% SBE-β-CD performed equivalently, each decreasing filipin staining to ˜78% of control. PRs carrying 30:70 SBE-β-CD:HP-β-CD ratio decreased fluorescence to ˜65% of the untreated group.

[2] = room temperature, in water; cited from earlier work
[3] = within 24 h; cited from earlier work
[4] = test system: npc1^−/− mice; settings: subcutaneous injection, 4.0 mg/kg of body weight; cited from earlier work
[5] = Fixed-field relaxivity measurement at 7 T; type: physicochemical; settings: 7 T Bruker BioSpec; 23° C.; 0.05 to 1.0 mM Gd in water
Procedure: A fixed field measurement of relaxivity was also performed on aqueous solutions of the polyrotaxane contrast agents in the range of 0.05 to 1.0 mM using a 7 T ([…]) Bruker BioSpec scanner at 23° C. The relaxivity r1 and r2 were determined by plotting the inverse longitudinal (1/T1) and transversal (1/T2) relaxation times, respectively, as a function of Gd concentrations.
Relaxivity Measurements. The longitudinal and transversal relaxation rate of the contrast agents and J774 macrophage cells were measured using a 7 T Bruker BioSpec scanner (Bindley Bioscience Center, West Lafayette, Ind.) 47/30 equipped with a Bruker Biospin MRI GmbH volume coil, 86 mm ID, operating at 300 MHz at 23° C. (RES 300 1 H 112/086 QNS TO AD). […] T1 and T2 values were measured using inversion recovery sequence and multi-slice-multi-echo (MSME) sequence respectively. […] The parameters used are as followed. r1: Repetition times, TE=50.72, 100, 350, 750, 1250, 2500, 3500, and 5000 ms, echo time, TE=22.22 ms, FOV=10×10 mm^2, matrix=128×128, slice thickness=1.0 mm, acquisition number=1. r2: TR=2000 ms, TE=15, 30, 45, 60, 75, 90, 105 ms, FOV=20×20 mm^2, matrix=128×128, slice thickness=1 mm, acquisition number=1. r1 and r2 values were determined by as the slopes of the lines for the plot of 1/T1 and 1/T2 against Gd concentrations, respectively, using the same ROI.

[6] = In vivo MRI contrast enhancement in Balb/C mice; settings: i.v., 3D T1-weighted MRI
Procedure: In Vivo MRI Contrast Enhancement of Gd^3+—HP-β-CD/SBE-β-CD-PRs. To investigate the MR contrast enhancement and the circulation fate in vivo of the polyrotaxanes, 3D T1-weighted MR images of Balb/C mice after intra-venous injection were acquired with 7 T Bruker small animal scanner before injection and 10, 20, 35, 50, and 60 min post injection. The tissue contrast enhancement of the compounds has different fates dependent on the threading efficiency, molecular weight, size and surface charge of each contrast agent. […] As expected, DOTAREM® was completely eliminated within 20 min, a typical trend commonly observed for small contrast agents.
To quantify the contrast enhancements, the contrast signal-to-noise ratio (CNR) was calculated from regions of interest (ROIs) carefully drawn in the cross-section images of heart, liver, and kidney obtained from the 2D T1-weighted scans. There was insignificant signal enhancement in all these tissues (FIG. 4). […]
In Vivo MR Imaging. […] To quantify the changes in tissues signal intensity, regions of interest (ROIs) were drawn in images of different organs obtained from the 2D T1-weighted scans and ParaVision software was used to evaluate the mean intensities. The contrast-to-noise ratio (CNR) was calculated for the tissues using the following equation: […]

[7] = test system: J774 macrophage cells; experiment: Cellular uptake by MR relaxation of lysed cells; type: cell-based; settings: 0.1 mM Gd, 12 h at 37° C., serum free media, 7 T
Procedure: Cellular Uptake Studies. Since macromolecular constructs such as polyrotaxanes can trigger the innate immune system (monocytes, macrophages, dendritic cells) in vivo, their uptake of the polyrotaxane contrast was evaluated by macrophages using the MR imaging modality. In addition, one can take advantage of the biological properties of these materials to image macrophages in human diseases including cancer, atherosclerosis, myocardial infarction, diabetes and other conditions. Macrophages are known to play an important role in host system defense leading to the detrimental fate of most nanomaterials. […] Based on these reports, cellular uptake in J774 macrophages of the polyrotaxane contrast agents was assessed. […] T1 and T2 values from the lysed cells contained in 300 μL eppendorf tubes were measured using an inversion recovery sequence at 7 T and the inverse of spin-lattice (1/T1) and spin-spin (1/T2) relaxation times were evaluated. […]
Cellular Uptake Studies. […] These cells were then collected and analyzed using reverse spin echo scanning on Bruker 7 T Biospect small animal scanner (Bindley Bioscience Center, West Lafayette, Ind.). The relaxations T1 and T2 values were collected from samples images recorded from the cells contained in 300 μL plastic containers using the scanning conditions similarly to those employed for In vitro imaging of polyrotaxane solutions.

Row | time to complete elimination [6] | Compound | filipin staining, % of untreated control [1] | water solubility [2] | fraction cleared from the bloodstream [3] | effect on survival, hepatopathology, neuropathology [4] | r1 (mM^−1s^−1) (1/T1) [5] | cellular uptake (1/T1, 1/T2 of lysed cells) [7]
1 | – | 2-Hydroxypropyl-β-cyclodextrin [HP-β-CD] | approximately 75% | 650 mg/mL | > 90% | improvement in their survival, hepatopathology, and neuropathology | – | –
2 | – | 4-sulfobutylether-β-cyclodextrin [SBE-β-CD] | approximately 75% | – | – | – | – | –
3 | ≤ 20 min | CNC[C@H](O)[C@@H](O)[C@H](O)[C@H](O)CO.O=C([O-])CN1CCN(CC(=O)[O-])CCN(CC(=O)O)CCN(CC(=O)[O-])CC1.[Gd+3] [DOTAREM] | – | – | – | – | 3.8 mM⁻¹ s⁻¹ | did not show any endocytosis
